In article PMC8909834, “An Orally Bioavailable and Highly Efficacious Inhibitor of CDK9/FLT3 for the Treatment of Acute Myeloid Leukemia” (Cancers, 2022):

Experiments:
Assay in all cases: Kinase Hotspot radiolabel assay
Assay type in all cases: biochemical
Settings in all cases: read-out: % Residual Activity
MSK2/RPS6KA4 = biological target: T1, MSK2/RPS6KA4 (Homo sapiens, UniProt O75676)
T1 construct: purchased Reaction Biology Corporation (Kinase HotSpot)
How it was run: (§1)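 Percent inhibition is from a radiometric Hotspot assay at 1 µM compound. The panel spans 369 kinases, and Ki measurement follows for those inhibited over 90%.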

EPHB3 = biological target: T2, EPHB3 (Homo sapiens, UniProt P54753)
T2 construct: purchased Reaction Biology Corporation (Kinase HotSpot)
How it was run: as §1

TBK1 = biological target: T3, TBK1 (Homo sapiens, UniProt Q9UHD2)
T3 construct: purchased Reaction Biology Corporation (Kinase HotSpot)
How it was run: as §1

c-Src = biological target: T4, c-Src (Homo sapiens, UniProt P12931)
T4 construct: purchased Reaction Biology Corporation (Kinase HotSpot)
How it was run: as §1

LRRK2 = biological target: T5, LRRK2 (Homo sapiens, UniProt Q5S007)
T5 construct: purchased Reaction Biology Corporation (Kinase HotSpot)
How it was run: as §1

FMS = biological target: T6, FMS (Homo sapiens, UniProt P07333)
T6 construct: purchased Reaction Biology Corporation (Kinase HotSpot)
How it was run: as §1

MARK4 = biological target: T7, MARK4 (Homo sapiens, UniProt Q96L34)
T7 construct: purchased Reaction Biology Corporation (Kinase HotSpot)
How it was run: as §1

DYRK4 = biological target: T8, DYRK4 (Homo sapiens, UniProt Q9NR20)
T8 construct: purchased Reaction Biology Corporation (Kinase HotSpot)
How it was run: as §1

BRSK2 = biological target: T9, BRSK2 (Homo sapiens, UniProt Q8IWQ3)
T9 construct: purchased Reaction Biology Corporation (Kinase HotSpot)
How it was run: as §1

YSK4/MAP3K19 = biological target: T10, YSK4/MAP3K19 (Homo sapiens, UniProt Q56UN5)
T10 construct: purchased Reaction Biology Corporation (Kinase HotSpot)
How it was run: as §1

GCK/MAP4K2 = biological target: T11, GCK/MAP4K2 (Homo sapiens, UniProt Q12851)
T11 construct: purchased Reaction Biology Corporation (Kinase HotSpot)
How it was run: as §1

CSK = biological target: T12, CSK (Homo sapiens, UniProt P41240)
T12 construct: purchased Reaction Biology Corporation (Kinase HotSpot)
How it was run: as §1

PASK = biological target: T13, PASK (Homo sapiens, UniProt Q96RG2)
T13 construct: purchased Reaction Biology Corporation (Kinase HotSpot)
How it was run: as §1

PKCb1 = biological target: T14, PKCb1 (Homo sapiens, UniProt P05771)
T14 construct: purchased Reaction Biology Corporation (Kinase HotSpot)
How it was run: as §1

PYK2 = biological target: T15, PYK2 (Homo sapiens, UniProt Q14289)
T15 construct: purchased Reaction Biology Corporation (Kinase HotSpot)
How it was run: as §1

CK1g2 = biological target: T16, CK1g2 (Homo sapiens, UniProt P78368)
T16 construct: purchased Reaction Biology Corporation (Kinase HotSpot)
How it was run: as §1

MLCK/MYLK = biological target: T17, MLCK/MYLK (Homo sapiens, UniProt Q15746)
T17 construct: purchased Reaction Biology Corporation (Kinase HotSpot)
How it was run: as §1

DDR1 = biological target: T18, DDR1 (Homo sapiens, UniProt Q08345)
T18 construct: purchased Reaction Biology Corporation (Kinase HotSpot)
How it was run: as §1

ALK2/ACVR1 = biological target: T19, ALK2/ACVR1 (Homo sapiens, UniProt Q04771)
T19 construct: purchased Reaction Biology Corporation (Kinase HotSpot)
How it was run: as §1

MEK2 = biological target: T20, MEK2 (Homo sapiens, UniProt P36507)
T20 construct: purchased Reaction Biology Corporation (Kinase HotSpot)
How it was run: as §1

GRK2 = biological target: T21, GRK2 (Homo sapiens, UniProt P25098)
T21 construct: purchased Reaction Biology Corporation (Kinase HotSpot)
How it was run: as §1

EPHA5 = biological target: T22, EPHA5 (Homo sapiens, UniProt P54756)
T22 construct: purchased Reaction Biology Corporation (Kinase HotSpot)
How it was run: as §1

GRK1 = biological target: T23, GRK1 (Homo sapiens, UniProt Q15835)
T23 construct: purchased Reaction Biology Corporation (Kinase HotSpot)
How it was run: as §1

IGF1R = biological target: T24, IGF1R (Homo sapiens, UniProt P08069)
T24 construct: purchased Reaction Biology Corporation (Kinase HotSpot)
How it was run: as §1

NIM1 = biological target: T25, NIM1 (Homo sapiens, UniProt Q8IY84)
T25 construct: purchased Reaction Biology Corporation (Kinase HotSpot)
How it was run: as §1

MST3/STK24 = biological target: T26, MST3/STK24 (Homo sapiens, UniProt Q9Y6E0)
T26 construct: purchased Reaction Biology Corporation (Kinase HotSpot)
How it was run: as §1

CDK9/cyclin K = biological target: T27, CDK9/cyclin K (Homo sapiens, UniProt P50750)
T27 construct: purchased Reaction Biology Corporation (Kinase HotSpot)
How it was run: as §1

PKCmu/PRKD1 = biological target: T28, PKCmu/PRKD1 (Homo sapiens, UniProt Q15139)
T28 construct: purchased Reaction Biology Corporation (Kinase HotSpot)
How it was run: as §1

PKCa = biological target: T29, PKCa (Homo sapiens, UniProt P17252)
T29 construct: purchased Reaction Biology Corporation (Kinase HotSpot)
How it was run: as §1

AKT2 = biological target: T30, AKT2 (Homo sapiens, UniProt P31751)
T30 construct: purchased Reaction Biology Corporation (Kinase HotSpot)
How it was run: as §1

T23 sequence (Q15835 whole entry): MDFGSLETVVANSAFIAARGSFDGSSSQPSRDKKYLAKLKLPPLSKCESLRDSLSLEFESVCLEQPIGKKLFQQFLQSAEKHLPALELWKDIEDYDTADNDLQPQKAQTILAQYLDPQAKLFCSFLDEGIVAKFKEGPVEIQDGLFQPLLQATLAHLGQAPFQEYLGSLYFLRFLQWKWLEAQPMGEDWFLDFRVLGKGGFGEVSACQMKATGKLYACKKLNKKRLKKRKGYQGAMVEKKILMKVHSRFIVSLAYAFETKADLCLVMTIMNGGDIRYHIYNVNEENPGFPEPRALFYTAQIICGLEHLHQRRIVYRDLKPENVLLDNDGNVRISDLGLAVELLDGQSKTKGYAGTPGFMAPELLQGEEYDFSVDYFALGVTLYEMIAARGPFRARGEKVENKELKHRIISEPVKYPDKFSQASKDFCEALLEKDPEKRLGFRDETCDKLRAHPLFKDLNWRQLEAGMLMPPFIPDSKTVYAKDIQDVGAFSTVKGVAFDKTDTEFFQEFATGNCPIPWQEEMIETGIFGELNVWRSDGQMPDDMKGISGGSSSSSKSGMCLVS
T30 sequence (P31751 whole entry): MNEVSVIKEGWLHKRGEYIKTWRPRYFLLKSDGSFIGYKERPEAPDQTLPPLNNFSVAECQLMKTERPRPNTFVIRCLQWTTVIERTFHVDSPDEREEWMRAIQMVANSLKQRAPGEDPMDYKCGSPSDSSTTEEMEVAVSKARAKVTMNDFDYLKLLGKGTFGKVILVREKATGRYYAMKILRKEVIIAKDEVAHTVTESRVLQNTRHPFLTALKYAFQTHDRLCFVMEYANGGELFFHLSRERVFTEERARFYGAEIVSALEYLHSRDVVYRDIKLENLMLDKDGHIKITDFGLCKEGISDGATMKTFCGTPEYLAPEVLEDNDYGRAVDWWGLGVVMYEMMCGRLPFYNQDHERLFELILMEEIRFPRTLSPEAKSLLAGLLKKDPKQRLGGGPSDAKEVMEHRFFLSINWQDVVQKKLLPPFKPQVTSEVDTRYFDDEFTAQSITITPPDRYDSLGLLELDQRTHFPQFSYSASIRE
T8 sequence (Q9NR20 whole entry): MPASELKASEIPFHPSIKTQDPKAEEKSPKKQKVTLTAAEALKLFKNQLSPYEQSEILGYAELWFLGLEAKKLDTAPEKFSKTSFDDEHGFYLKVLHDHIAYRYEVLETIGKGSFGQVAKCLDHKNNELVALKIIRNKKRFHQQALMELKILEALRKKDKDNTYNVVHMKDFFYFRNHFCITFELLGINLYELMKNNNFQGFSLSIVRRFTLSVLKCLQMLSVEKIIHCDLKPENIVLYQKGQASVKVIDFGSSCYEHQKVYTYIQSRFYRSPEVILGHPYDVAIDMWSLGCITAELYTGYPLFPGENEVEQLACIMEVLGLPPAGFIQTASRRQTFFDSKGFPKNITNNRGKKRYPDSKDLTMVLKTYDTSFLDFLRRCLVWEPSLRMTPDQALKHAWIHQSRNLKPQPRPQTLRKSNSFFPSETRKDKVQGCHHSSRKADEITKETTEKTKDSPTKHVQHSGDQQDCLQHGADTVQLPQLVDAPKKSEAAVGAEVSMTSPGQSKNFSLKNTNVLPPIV
T11 sequence (Q12851 whole entry): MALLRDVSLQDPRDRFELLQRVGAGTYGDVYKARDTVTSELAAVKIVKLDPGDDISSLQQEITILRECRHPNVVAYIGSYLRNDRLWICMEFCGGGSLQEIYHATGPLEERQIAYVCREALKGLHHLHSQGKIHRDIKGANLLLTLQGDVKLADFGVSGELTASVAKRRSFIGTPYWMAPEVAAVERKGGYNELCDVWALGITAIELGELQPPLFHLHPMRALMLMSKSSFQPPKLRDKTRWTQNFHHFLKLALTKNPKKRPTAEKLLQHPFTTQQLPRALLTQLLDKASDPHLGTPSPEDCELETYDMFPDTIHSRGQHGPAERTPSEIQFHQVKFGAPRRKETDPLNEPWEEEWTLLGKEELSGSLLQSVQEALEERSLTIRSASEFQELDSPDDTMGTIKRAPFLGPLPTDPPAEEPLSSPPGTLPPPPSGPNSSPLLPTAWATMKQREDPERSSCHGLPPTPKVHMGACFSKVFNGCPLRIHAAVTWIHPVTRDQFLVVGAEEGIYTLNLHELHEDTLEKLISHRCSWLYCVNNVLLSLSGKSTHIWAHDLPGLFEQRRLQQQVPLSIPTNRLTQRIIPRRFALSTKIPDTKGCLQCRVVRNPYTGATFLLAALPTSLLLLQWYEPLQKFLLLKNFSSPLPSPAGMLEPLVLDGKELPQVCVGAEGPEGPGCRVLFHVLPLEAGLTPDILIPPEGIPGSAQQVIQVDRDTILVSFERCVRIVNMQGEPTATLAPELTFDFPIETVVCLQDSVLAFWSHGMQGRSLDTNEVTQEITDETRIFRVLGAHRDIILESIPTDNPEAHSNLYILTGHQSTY
T21 sequence (P25098 whole entry): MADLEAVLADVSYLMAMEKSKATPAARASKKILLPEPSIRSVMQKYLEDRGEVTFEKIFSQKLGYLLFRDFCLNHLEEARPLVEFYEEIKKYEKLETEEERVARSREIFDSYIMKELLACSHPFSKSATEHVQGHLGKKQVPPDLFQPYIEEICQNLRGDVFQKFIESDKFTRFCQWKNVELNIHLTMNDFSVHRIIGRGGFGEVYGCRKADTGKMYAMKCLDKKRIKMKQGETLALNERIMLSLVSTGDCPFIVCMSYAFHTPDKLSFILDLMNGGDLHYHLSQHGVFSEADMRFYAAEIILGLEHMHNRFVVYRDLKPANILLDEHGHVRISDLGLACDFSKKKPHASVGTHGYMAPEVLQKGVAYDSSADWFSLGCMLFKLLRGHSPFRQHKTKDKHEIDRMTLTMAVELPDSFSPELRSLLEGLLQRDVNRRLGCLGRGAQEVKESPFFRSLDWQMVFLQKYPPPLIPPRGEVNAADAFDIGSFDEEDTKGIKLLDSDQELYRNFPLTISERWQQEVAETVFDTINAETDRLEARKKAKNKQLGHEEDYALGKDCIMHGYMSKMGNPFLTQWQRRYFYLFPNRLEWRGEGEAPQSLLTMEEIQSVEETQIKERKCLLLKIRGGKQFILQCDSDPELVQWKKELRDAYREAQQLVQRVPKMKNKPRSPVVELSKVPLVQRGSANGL
T9 sequence (Q8IWQ3 whole entry): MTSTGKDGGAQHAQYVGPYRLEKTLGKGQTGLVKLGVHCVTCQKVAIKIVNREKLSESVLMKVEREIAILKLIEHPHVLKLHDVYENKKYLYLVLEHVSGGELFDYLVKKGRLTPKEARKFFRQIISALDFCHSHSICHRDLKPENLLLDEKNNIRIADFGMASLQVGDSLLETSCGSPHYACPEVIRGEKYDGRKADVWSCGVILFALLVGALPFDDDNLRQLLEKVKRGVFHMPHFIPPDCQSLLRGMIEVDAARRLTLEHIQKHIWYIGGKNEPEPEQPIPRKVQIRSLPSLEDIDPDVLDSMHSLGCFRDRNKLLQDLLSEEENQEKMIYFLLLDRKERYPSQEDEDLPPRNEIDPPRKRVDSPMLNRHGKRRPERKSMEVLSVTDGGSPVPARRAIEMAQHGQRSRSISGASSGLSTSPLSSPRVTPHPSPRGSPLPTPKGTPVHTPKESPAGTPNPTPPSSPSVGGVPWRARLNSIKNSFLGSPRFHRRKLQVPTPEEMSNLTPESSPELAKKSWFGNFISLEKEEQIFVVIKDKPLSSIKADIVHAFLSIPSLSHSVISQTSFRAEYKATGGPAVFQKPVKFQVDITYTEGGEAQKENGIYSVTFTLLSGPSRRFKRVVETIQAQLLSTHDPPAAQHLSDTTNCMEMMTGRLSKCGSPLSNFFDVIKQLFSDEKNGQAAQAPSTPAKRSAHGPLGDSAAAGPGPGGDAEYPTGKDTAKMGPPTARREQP
T12 sequence (P41240 whole entry): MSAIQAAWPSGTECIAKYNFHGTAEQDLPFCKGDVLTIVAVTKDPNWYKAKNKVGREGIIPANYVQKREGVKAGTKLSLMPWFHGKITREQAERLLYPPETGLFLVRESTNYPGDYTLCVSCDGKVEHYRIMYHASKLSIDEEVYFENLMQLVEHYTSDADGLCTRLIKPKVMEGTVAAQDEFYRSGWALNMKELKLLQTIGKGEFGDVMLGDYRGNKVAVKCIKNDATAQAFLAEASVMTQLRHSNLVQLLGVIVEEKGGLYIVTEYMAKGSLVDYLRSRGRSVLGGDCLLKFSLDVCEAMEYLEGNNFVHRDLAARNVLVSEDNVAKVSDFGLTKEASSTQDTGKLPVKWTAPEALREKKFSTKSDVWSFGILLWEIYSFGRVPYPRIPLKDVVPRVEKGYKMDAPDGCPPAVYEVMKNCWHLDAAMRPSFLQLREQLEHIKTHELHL

Cc1cnc(N[C@H]2CC[C@H](N)CC2)nc1-c1cnc2ccc(-c3ccccc3)cn12 [CDDD11-8]
remaining activity at 1 µM (MSK2/RPS6KA4): 97.4% | remaining activity at 1 µM (EPHB3): 92.7% | remaining activity at 1 µM (TBK1): 94.6% | remaining activity at 1 µM (c-Src): 49.5% | remaining activity at 1 µM (LRRK2): 70.6% | remaining activity at 1 µM (FMS): 73% | remaining activity at 1 µM (MARK4): 22.4% | remaining activity at 1 µM (DYRK4): 93.6% | remaining activity at 1 µM (BRSK2): 96.5% | remaining activity at 1 µM (YSK4/MAP3K19): 63.5% | remaining activity at 1 µM (GCK/MAP4K2): 24.8% | remaining activity at 1 µM (CSK): 91.2% | remaining activity at 1 µM (PASK): 43.1% | remaining activity at 1 µM (PKCb1): 87.4% | remaining activity at 1 µM (PYK2): 84.2% | remaining activity at 1 µM (CK1g2): 59.4% | remaining activity at 1 µM (MLCK/MYLK): 57.2% | remaining activity at 1 µM (DDR1): 63.1% | remaining activity at 1 µM (ALK2/ACVR1): 121% | remaining activity at 1 µM (MEK2): 79.1% | remaining activity at 1 µM (GRK2): 95.9% | remaining activity at 1 µM (EPHA5): 83.8% | remaining activity at 1 µM (GRK1): 65% | remaining activity at 1 µM (IGF1R): 79% | remaining activity at 1 µM (NIM1): 89.9% | remaining activity at 1 µM (MST3/STK24): 103% | remaining activity at 1 µM (CDK9/cyclin K): 6.4% | remaining activity at 1 µM (PKCmu/PRKD1): 53.1% | remaining activity at 1 µM (PKCa): 76% | remaining activity at 1 µM (AKT2): 116%
